The supplement of paper PMC4862054

What was measured:
HDQ-P1 [1] = settings: 72 h
Procedure, shortened: (§1)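 Plates of 384 wells holding compound in 5 µl medium received breast cancer cell lines in 20 µl suspension and were incubated 72 h. CellTiter-Blue (2.5 µl, 2 h, 37 °C) was used for viability, read at 560/590 nm, and every plate was normalised to vehicle and a positive kill control and assessed by Z'-factor. The EC50 derives from a percent-inhibition dose-response curve fit censored at the highest concentration, leaving out rows whose drug sensitivity score was zero.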

CAL-85-1 [2] = settings: 72 h
Procedure, shortened: as §1

CAL-148 [3] = settings: 72 h
Procedure, shortened: as §1

CAL-51 [4] = settings: 72 h
Procedure, shortened: as §1

DU-4475 [5] = settings: 72 h
Procedure, shortened: as §1

CAL-120 [6] = settings: 72 h
Procedure: (§2)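 Drug sensitivity and resistance testing (DSRT) of breast cancer cell lines in 384-well plates, 5 concentrations in 10-fold dilutions over a compound-specific 10,000-fold range. After 72 h, cytotoxicity was read by CellTox Green fluorescence and viability by CellTiter-Glo luminescence (multiplexed), normalised to DMSO and benzethonium chloride controls. EC50 is the inflection point of the fitted dose-response curve (bottom asymptote free, so it can be relative for partial curves) and is censored at the highest tested concentration. Rows with DSS 0 (no meaningful response) were excluded.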

CAL-85-1 [7] = settings: 72 h; remark: listed apart in the source
Procedure: as §2

HCC1143 [8] = settings: 72 h
Procedure: as §2

MDA-MB-436 [9] = settings: 72 h
Procedure: as §2

BT-474 [10] = settings: 72 h
Procedure: as §2

Hs578T [11] = settings: 72 h
Procedure: as §2

MFM-223 [12] = settings: 72 h
Procedure: as §2

MDA-MB-468 [13] = settings: 72 h
Procedure: as §2

CAL-148 [14] = settings: 72 h; remark: listed apart in the source
Procedure: as §2

MCF-10A = settings: 72 h
Procedure: as §2

CAL-51 [15] = settings: 72 h; remark: listed apart in the source
Procedure: as §2

MDA-MB-231 [16] = settings: 72 h
Procedure: as §2

HDQ-P1 [17] = settings: 72 h; remark: listed apart in the source
Procedure, shortened: (§3)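 Two sequential readouts followed a 72 h incubation of breast cancer cell lines with compound at 5 concentrations in 10-fold steps over a compound-specific 10,000-fold range: CellTox Green fluorescence (485/520 nm) for cell death, then CellTiter-Glo luminescence, after 10 min at room temperature, for viability. Each plate was normalised to 0.1 % DMSO and a positive kill control. Dose-response curves were fitted for EC50, censored at the top concentration.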

HCC1143 [18] = settings: 72 h; remark: listed apart in the source
Procedure, shortened: as §3

MFM-223 [19] = settings: 72 h; remark: listed apart in the source
Procedure, shortened: as §3

HCC1599 [20] = settings: 72 h
Procedure, shortened: as §3

CAL-148 [21] = settings: 72 h; remark: listed apart in the source
Procedure, shortened: as §3

DU-4475 [22] = settings: 72 h; remark: listed apart in the source
Procedure, shortened: as §3

SK-BR-3 = settings: 72 h
Procedure, shortened: as §1

CAL-120 [23] = settings: 72 h; remark: listed apart in the source
Procedure, shortened: as §1

HCC1143 [24] = settings: 72 h; remark: listed apart in the source
Procedure, shortened: as §1

MDA-MB-436 [25] = settings: 72 h; remark: listed apart in the source
Procedure, shortened: as §1

BT-474 [26] = settings: 72 h; remark: listed apart in the source
Procedure, shortened: as §1

Hs578T [27] = settings: 72 h; remark: listed apart in the source
Procedure, shortened: as §1

MFM-223 [28] = settings: 72 h; remark: listed apart in the source
Procedure, shortened: as §1

MDA-MB-468 [29] = settings: 72 h; remark: listed apart in the source
Procedure, shortened: as §1

HCC1599 [30] = settings: 72 h; remark: listed apart in the source
Procedure, shortened: as §1

HCC1937 [31] = settings: 72 h
Procedure, shortened: as §1

MDA-MB-231 [32] = settings: 72 h; remark: listed apart in the source
Procedure, shortened: as §1

BT-549 [33] = settings: 72 h
Procedure, shortened: as §1

BT-474 [34] = experiment: normalised viability (% of control), CellTiter-Blue; higher = more viable cells (about 100 = DMSO control); settings: incubation time: 72 h
Procedure, shortened: (§4)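 Breast cancer cell lines in 20 µl suspension were seeded onto 384-well plates pre-loaded with compound dissolved in 5 µl medium, then incubated 72 h. CellTiter-Blue reagent (2.5 µl) was added for 2 h at 37 °C and fluorescence read at 560/590 nm. Each plate was normalised to vehicle (100) and a positive kill control (0), with Z'-factor quality control. The value is normalised viability at one listed concentration of the series.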

DU-4475 [35] = experiment: as above; settings: incubation time: 72 h
Procedure, shortened: as §4

MDA-MB-453 = settings: 72 h
Procedure: as §2

HDQ-P1 [36] = settings: 72 h; remark: listed apart in the source
Procedure: as §2

HCC1937 [37] = settings: 72 h; remark: listed apart in the source
Procedure: as §2

BT-549 [38] = settings: 72 h; remark: listed apart in the source
Procedure: as §2

| EC50, CellTiter-Glo (HCC1143 [18]) [nM] | EC50, CellTiter-Blue viability (SK-BR-3) [nM] | EC50, CellTiter-Blue viability (MDA-MB-436 [25]) [nM] | EC50, CellTiter-Blue viability (BT-474 [26]) [nM] | EC50, CellTiter-Blue viability (MDA-MB-468 [29]) [nM] | EC50, CellTiter-Blue viability (MDA-MB-231 [32]) [nM] | EC50, CellTiter-Blue viability (BT-549 [33]) [nM] | Compound | EC50, CellTiter-Blue viability (HDQ-P1 [1]) [nM] | EC50, CellTiter-Blue viability (CAL-85-1 [2]) [nM] | EC50, CellTiter-Blue viability (CAL-148 [3]) [nM] | EC50, CellTiter-Blue viability (CAL-51 [4]) [nM] | EC50, CellTox Green (CAL-85-1 [7]) [nM] | EC50, CellTox Green (MDA-MB-436 [9]) [nM] | EC50, CellTox Green (BT-474 [10]) [nM] | EC50, CellTox Green (CAL-51 [15]) [nM] | EC50, CellTiter-Glo (HDQ-P1 [17]) [nM] | EC50, CellTiter-Glo (CAL-148 [21]) [nM] | EC50, CellTiter-Blue viability (CAL-120 [23]) [nM] | normalised viability (BT-474 [34]; 1000 nM) [%] | normalised viability (DU-4475 [35]; 30 nM) [%] | further results |
| --- | --- | --- | --- | --- | --- | --- | --- | --- | --- | --- | --- | --- | --- | --- | --- | --- | --- | --- | --- | --- | --- |
| – | – | – | – | – | – | – | CNNCc1ccc(C(=O)NC(C)C)cc1 [Procarbazine] | – | – | – | – | – | – | – | – | – | – | – | 114 | 107 | – |
| 9320 | 2400 | 505 | 2790 | 2690 | 4700 | 8000 | CN(C)C[C@@H]1CCn2cc(c3ccccc32)C2=C(C(=O)NC2=O)c2cn(c3ccccc23)CCO1 [Ruboxistaurin] | 3540 | – | 4840 | 4800 | 2320 | 1000 | 370 | 1580 | 2720 | 1750 | 6140 | 93.1 | 92.3 | EC50, CellTiter-Blue viability (DU-4475 [5]): 2740 nM; EC50, CellTox Green (MDA-MB-453): 3790 nM; EC50, CellTox Green (HDQ-P1 [36]): 5090 nM; EC50, CellTox Green (MDA-MB-468 [13]): 2490 nM; EC50, CellTox Green (CAL-148 [14]): 999 nM; EC50, CellTox Green (HCC1937 [37]): 7550 nM; EC50, CellTox Green (MDA-MB-231 [16]): 2010 nM; EC50, CellTox Green (BT-549 [38]): 7220 nM; EC50, CellTiter-Glo (MFM-223 [19]): 3220 nM; EC50, CellTiter-Glo (DU-4475 [22]): 3790 nM; EC50, CellTiter-Blue viability (Hs578T [27]): 8920 nM; EC50, CellTiter-Blue viability (MFM-223 [28]): 1480 nM; EC50, CellTiter-Blue viability (HCC1599 [30]): 1730 nM; EC50, CellTiter-Blue viability (HCC1937 [31]): 4090 nM |
| 1330 | 6750 | > 10000 | 1540 | 1410 | 13.2 | 1510 | CN1CCN(CCOc2cc(OC3CCOCC3)c3c(Nc4c(Cl)ccc5c4OCO5)ncnc3c2)CC1 [Saracatinib] | 615 | 757 | 447 | 700 | 2940 | 1620 | 8130 | 371 | 541 | 2550 | 567 | 85.2 | 96.3 | EC50, CellTox Green (HDQ-P1 [36]): 6610 nM; EC50, CellTiter-Glo (HCC1599 [20]): 5900 nM |

| Compound | EC50, CellTiter-Glo (HCC1143 [18]) [nM] | EC50, CellTiter-Blue viability (SK-BR-3) [nM] | EC50, CellTiter-Blue viability (MDA-MB-436 [25]) [nM] | EC50, CellTiter-Blue viability (BT-474 [26]) [nM] | EC50, CellTiter-Blue viability (MDA-MB-468 [29]) [nM] | EC50, CellTiter-Blue viability (MDA-MB-231 [32]) [nM] | EC50, CellTiter-Blue viability (BT-549 [33]) [nM] | EC50, CellTiter-Blue viability (HDQ-P1 [1]) [nM] | EC50, CellTiter-Blue viability (CAL-85-1 [2]) [nM] | EC50, CellTiter-Blue viability (CAL-148 [3]) [nM] | EC50, CellTiter-Blue viability (CAL-51 [4]) [nM] | EC50, CellTox Green (CAL-85-1 [7]) [nM] | EC50, CellTox Green (MDA-MB-436 [9]) [nM] | EC50, CellTox Green (BT-474 [10]) [nM] | EC50, CellTox Green (CAL-51 [15]) [nM] | EC50, CellTiter-Glo (HDQ-P1 [17]) [nM] | EC50, CellTiter-Glo (CAL-148 [21]) [nM] | EC50, CellTiter-Blue viability (CAL-120 [23]) [nM] | normalised viability (BT-474 [34]; 1000 nM) [%] | normalised viability (DU-4475 [35]; 30 nM) [%] | further results |
| --- | --- | --- | --- | --- | --- | --- | --- | --- | --- | --- | --- | --- | --- | --- | --- | --- | --- | --- | --- | --- | --- |
| C/C(=C\c1csc(C)n1)[C@@H]1C[C@@H]2O[C@]2(C)CCC[C@H](C)[C@H](O)[C@@H](C)C(=O)C(C)(C)[C@@H](O)CC(=O)O1 [Patupilone] | 18.9 | 5.58 | 7.26 | 10.9 | 2.77 | 0.95 | 4.38 | 16.5 | 1.56 | 3.13 | 11.4 | 53.3 | 8.93 | 35.1 | 2.63 | 66.7 | 30 | 8.13 | – | – | EC50, CellTiter-Blue viability (DU-4475 [5]): 11.1 nM; EC50, CellTox Green (CAL-120 [6]): 162 nM; EC50, CellTox Green (HCC1143 [8]): 596 nM; EC50, CellTox Green (Hs578T [11]): 206 nM; EC50, CellTox Green (MFM-223 [12]): 609 nM; EC50, CellTox Green (MDA-MB-468 [13]): 1.67 nM; EC50, CellTox Green (CAL-148 [14]): 34.8 nM; EC50, CellTox Green (MCF-10A): 145 nM; EC50, CellTox Green (MDA-MB-231 [16]): 136 nM; EC50, CellTiter-Glo (MFM-223 [19]): 156 nM; EC50, CellTiter-Glo (HCC1599 [20]): 584 nM; EC50, CellTiter-Glo (DU-4475 [22]): 93.8 nM; EC50, CellTiter-Blue viability (HCC1143 [24]): 9.87 nM; EC50, CellTiter-Blue viability (Hs578T [27]): 6.7 nM; EC50, CellTiter-Blue viability (MFM-223 [28]): 13 nM; EC50, CellTiter-Blue viability (HCC1599 [30]): 211 nM; EC50, CellTiter-Blue viability (HCC1937 [31]): 2.26 nM; normalised viability (BT-474 [34]; 100 nM): 24.8%; normalised viability (DU-4475 [35]; 3 nM): 89.2% |
